Data as given in PubChem BioAssay AID1963978 (Molecular Pharmacology Branch, DTP, NCI, 2024).
pIC50: −log10 of the molar value.

Test system: 616215-338-R-J1-PDC spheroids with HUVEC/MSC, viability
Assay: Anticancer human tumor 616215-338-R-J1-PDC patient-derived colon adenocarcinoma cell line growth inhibition [PI3K]
Settings: for pIC50: curve of first compound; for viability, T/C: stronger effect = lower value
Text: Combinatorial screen of targeted agents with the PI3K inhibitors inavolisib, alpelisib, duvelisib, and copanlisib in multi-cell type tumor spheroids
A high-throughput screen of multi-cell type tumor spheroids was designed to identify active combinations of targeted small molecules and PI3K pathway inhibitors. Complex spheroids include a stromal component modeled by human endothelial cells (HUVEC) and fibroblasts modeled by human mesenchymal stem cells (MSCs). The concentration ranges selected for each drug and investigational agent were based upon clinically achievable concentrations if the clinical Cmax of the agent was known.
Compounds. The drugs and investigational agents: inavolisib (NSC800729), alpelisib (NSC765974), duvelisib (NSC772469), copanlisib (NSC816437), ipatasertib (NSC767898), afuresertib (NSC778305), talazoparib (NSC767125), sapanisertib (NSC764658), selumetinib (NSC741078), tovorafenib (DAY101, NSC766906), vemurafenib (NSC761431), ravoxertinib (NSC781343), sotorasib (NSC818433), MRTX1133 (NSC 836407), abemaciclib (NSC 768073), palbociclib (NSC758247), venetoclax (NSC 766270), SY5609 (NSC837396), enzalutamide (NSC755605), and darolutamide (NSC825331), were obtained from the National Cancer Institute (NCI) Developmental Therapeutics Program Chemical Repository. The FDA-approved anticancer drug set is available from the NCI Developmental Therapeutics Program. […] The stock solutions were prepared in dimethyl sulfoxide (DMSO, Sigma-Aldrich, St. Louis, MO, cat. D2650) at 800-fold the tested concentration and stored at -70 degrees C prior to their use. All drugs and investigational agents were tested over a range starting from a high concentration at or near the clinical Cmax and decreasing in half-log increments. If the clinical Cmax for an agent had not been determined, the highest concentration tested was 10 microM.
Cell Culture. All cells were maintained in an incubator at 37 degrees C and 5% CO2 with 95% humidity. The PDC lines were cultured according to standard operating procedures established by the NCI PDMR (https://pdmr.cancer.gov/sops/default.htm). All PDCs were thawed and cultured in Matrigel-coated flasks prepared with a working solution of 1X Ham's F-12 nutrient mix, without supplementation (Invitrogen, Waltham, MA, cat. 11765054), 100 U/mL penicillin-streptomycin (Invitrogen, cat. 15140122), and 2.5% Matrigel (Corning Inc., Corning, NY, cat. 354248) for the first three passages. The 354836-022-R-J1-PDC, 475296-252-R-J1-PDC, and 997726-040-R-J2-PDC lines were cultured in 6A media, which includes advanced DMEM/F-12 (Thermo Fisher Scientific, cat. 12634028), 10 mM HEPES (Thermo Fisher Scientific, cat. 15630080), 1X GlutaMAX supplement (Thermo Fisher Scientific, cat. 35050061), 0.1 mg/mL primocin (InvivoGen, San Diego, CA, cat. ant-pm-2), 10% defined fetal bovine serum, heat inactivated (HyClone Laboratories Inc., Logan, UT, cat. SH30070.03HI), 50% L-WRN conditioned media (ATCC, cat. CRL-3276), 1.25 mM N-Acetyl-L-cysteine (Sigma-Aldrich, cat. A9165), 10 mM nicotinamide (Sigma-Aldrich, cat. N0636), 1X B-27 supplement (Thermo Fisher Scientific, cat. 17504044), 1X N-2 supplement (Thermo Fisher Scientific, cat. 17502048), and 10 microM Y-27632 dihydrochloride (Tocris Bioscience, Bristol, United Kingdom, cat. 1254). The 624824-186-R-J2-PDC line was cultured in 6C/Colon 1B media, which includes all 6A media components plus 50 ng/mL human EGF recombinant protein (Thermo Fisher Scientific, cat. PHG0311). […]

[1] = second compound 0.00316 µM, first compound 0.0316 µM
[2] = second compound 0.00316 µM, first compound 0.1 µM
[3] = second compound 0.00316 µM, first compound 0.316 µM
[4] = second compound 0.00316 µM, first compound 1 µM
[5] = second compound 0.01 µM, first compound 0.0316 µM
[6] = second compound 0.01 µM, first compound 0.1 µM
[7] = second compound 0.01 µM, first compound 0.316 µM
[8] = second compound 0.01 µM, first compound 1 µM
[9] = second compound 0.0316 µM, first compound 0.0316 µM
[10] = second compound 0.0316 µM, first compound 0.1 µM
[11] = second compound 0.0316 µM, first compound 0.316 µM
[12] = second compound 0.0316 µM, first compound 1 µM
[13] = second compound 0.1 µM, first compound 0.0316 µM
[14] = second compound 0.1 µM, first compound 0.1 µM
[15] = second compound 0.1 µM, first compound 0.316 µM
[16] = second compound 0.1 µM, first compound 1 µM
[17] = second compound 0.316 µM, first compound 0.0316 µM
[18] = second compound 0.316 µM, first compound 0.1 µM
[19] = second compound 0.316 µM, first compound 0.316 µM
[20] = second compound 0.316 µM, first compound 1 µM
[21] = second compound 1 µM, first compound 0.0316 µM
[22] = second compound 1 µM, first compound 0.1 µM
[23] = second compound 1 µM, first compound 0.316 µM
[24] = second compound 1 µM, first compound 1 µM
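Further: spheroids exposed to agents for seven days before the viability read.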

C#Cc1c(F)ccc2cc(O)cc(-c3ncc4c(N5CC6CCC(C5)N6)nc(OCC56CCCN5CC(F)C6)nc4c3F)c12 (centres undefined) + COc1c(OCCCN2CCOCC2)ccc2c3n(c(=NC(=O)c4cnc(N)nc4)nc12)CCN3
pIC50 (second compound 0.00316 µM): < 5.00 | pIC50 (second compound 0.01 µM): 5.11 | pIC50 (second compound 0.0316 µM): 5.08 | pIC50 (second compound 0.1 µM): 5.22 | pIC50 (second compound 0.316 µM): > 7.50 | pIC50 (second compound 1 µM): > 7.50 | viability, T/C [1]: 95.5% | viability, T/C [2]: 89.2% | viability, T/C [3]: 90.4% | viability, T/C [4]: 91.4% | viability, T/C (second compound 0.00316 µM, first compound 3.16 µM): 94.9% | viability, T/C (second compound 0.00316 µM, first compound 10 µM): 72% | viability, T/C [5]: 95.5% | viability, T/C [6]: 89.7% | viability, T/C [7]: 91.8% | viability, T/C [8]: 102% | viability, T/C (second compound 0.01 µM, first compound 3.16 µM): 73.6% | viability, T/C (second compound 0.01 µM, first compound 10 µM): 43.5% | viability, T/C [9]: 101% | viability, T/C [10]: 98.1% | viability, T/C [11]: 95.4% | viability, T/C [12]: 106% | viability, T/C (second compound 0.0316 µM, first compound 3.16 µM): 81.5% | viability, T/C (second compound 0.0316 µM, first compound 10 µM): 44.1% | viability, T/C [13]: 94% | viability, T/C [14]: 95.9% | viability, T/C [15]: 90.2% | viability, T/C [16]: 93.7% | viability, T/C (second compound 0.1 µM, first compound 3.16 µM): 74.7% | viability, T/C (second compound 0.1 µM, first compound 10 µM): 30.3% | viability, T/C [17]: 38.2% | viability, T/C [18]: 42.4% | viability, T/C [19]: 38.2% | viability, T/C [20]: 30.9% | viability, T/C (second compound 0.316 µM, first compound 3.16 µM): 32.4% | viability, T/C (second compound 0.316 µM, first compound 10 µM): 17.9% | viability, T/C [21]: 19.8% | viability, T/C [22]: 27.1% | viability, T/C [23]: 17.3% | viability, T/C [24]: 10.8% | viability, T/C (second compound 1 µM, first compound 3.16 µM): 6.21% | viability, T/C (second compound 1 µM, first compound 10 µM): 0.88%

CCN1CCN(Cc2ccc(Nc3ncc(F)c(-c4cc(F)c5nc(C)n(C(C)C)c5c4)n3)nc2)CC1 + CC(Nc1ccc2c(c1)OCCn1cc(N3C(=O)OCC3C(F)F)nc1-2)C(N)=O
pIC50 (second compound 0.00316 µM): < 6.00 | pIC50 (second compound 0.01 µM): < 6.00 | pIC50 (second compound 0.0316 µM): < 6.00 | pIC50 (second compound 0.1 µM): < 6.00 | pIC50 (second compound 0.316 µM): < 6.00 | pIC50 (second compound 1 µM): < 6.00 | viability, T/C (second compound 0.00316 µM, first compound 0.00316 µM): 93.8% | viability, T/C (second compound 0.00316 µM, first compound 0.01 µM): 100% | viability, T/C [1]: 96.3% | viability, T/C [2]: 98.7% | viability, T/C [3]: 131% | viability, T/C [4]: 111% | viability, T/C (second compound 0.01 µM, first compound 0.00316 µM): 94.9% | viability, T/C (second compound 0.01 µM, first compound 0.01 µM): 102% | viability, T/C [5]: 98.5% | viability, T/C [6]: 102% | viability, T/C [7]: 113% | viability, T/C [8]: 102% | viability, T/C (second compound 0.0316 µM, first compound 0.00316 µM): 103% | viability, T/C (second compound 0.0316 µM, first compound 0.01 µM): 111% | viability, T/C [9]: 99.8% | viability, T/C [10]: 107% | viability, T/C [11]: 112% | viability, T/C [12]: 96.6% | viability, T/C (second compound 0.1 µM, first compound 0.00316 µM): 104% | viability, T/C (second compound 0.1 µM, first compound 0.01 µM): 94.3% | viability, T/C [13]: 99.3% | viability, T/C [14]: 108% | viability, T/C [15]: 107% | viability, T/C [16]: 74.5% | viability, T/C (second compound 0.316 µM, first compound 0.00316 µM): 102% | viability, T/C (second compound 0.316 µM, first compound 0.01 µM): 110% | viability, T/C [17]: 105% | viability, T/C [18]: 97.8% | viability, T/C [19]: 96.1% | viability, T/C [20]: 57.6% | viability, T/C (second compound 1 µM, first compound 0.00316 µM): 113% | viability, T/C (second compound 1 µM, first compound 0.01 µM): 90.9% | viability, T/C [21]: 84.6% | viability, T/C [22]: 85.5% | viability, T/C [23]: 73.7% | viability, T/C [24]: 49.6%
